The target in experiment [1] is Agrobacterium tumefaciens ThuE (AtThuE) sucrose binding protein carrying N192D (SEQ ID NO: 2) fused between ECFP and EYFP, sensor FLIPsuc4μ (FLIPsuc), wt (indicator SEQ ID NO: 4) (Agrobacterium fabrum, UniProt A9CF11, N212D). Kind of experiment: in vitro FRET titration of purified sensor FLIPsuc4μ. The text has this:
(§1) Because the maltose/trehalose/sucrose binding protein from Agrobacterium tumefaciens (AtThuE) is 78.9% identical over predicted mature region of the SmThuE protein (SEQ ID NO: 2) and is 21.4% homologous to the maltose binding protein from E. coli (malE), we attempted to clone the AtThuE binding protein. To isolate the gene, a PCR product from genomic Agrobacterium tumefaciens (strain C58C1) DNA encoding mature AtThuE without signal sequence and stop codon was cloned into the KpnI site between ECFP and EYFP genes (FIG. 1A). The chimeric gene was inserted into pRSET (Invitrogen) and transferred to E. coli BL21(DE3)Gold (Stratagene). […] It is unknown whether this difference corresponds to a mutation or natural variation. Since N192D was outside the binding pocket and since AtThuE carrying the mutation was functional as a sugar sensor (see Table 1), all further experiments were carried out with the nanosensor named FLIPsuc4μ carrying the mutation N192D. FLIPsuc proteins were extracted from BL21(DE3)gold and purified as described (Fehr et al. 2002).
(§2) A DNA fragment encoding the mature Agrobacterium tumefaciens maltose/trehalose/sucrose BP protein was fused between the ECFP and EYFP sequences as described above. The chimeric gene was expressed in E. coli and the protein product purified and assayed for substrate specificity.
(§3) Substrate titration curves and substrate specificity analysis were performed on Safire (Tecan) fluorometer. ECFP was excited at 433 nm and emission was set to 485 nm and 528 nm for ECFP and EYFP, respectively (bandwidth 12 nm). All in vitro analyses were performed in 20 mM MOPS buffer at pH 7. FRET was determined as EYFP-ECFP emission intensity ratio. Using the change in ratio upon ligand binding, binding constants (Kd) were determined by fitting substrate titration curves to equation 1: S=1−(r−rmin)(rmax−rmin)=[S]b/[P]t=n[S]/(Kd+[S]), where [S] is substrate concentration; [S]b, concentration of bound substrate; n, number of binding sites; [P]t, total concentration of binding protein; r, ratio; rmin, minimum ratio in absence of ligand; rmax, maximum ratio at saturation. Hill coefficients were determined using Hill equation 2: S=(n[S]^n)/(Kd+[S]^n).
(§4) SmThuE is mainly functioning as a trehalose and maltose binding protein. Sucrose is thought to be transported to a lesser extent. FLIPsuc4μ was therefore incubated with trehalose, maltose and other related sugars to test for its binding capacities. Substrate-induced conformational changes were measured using FRET in micro plate assays. […] Maltose and glucose were chosen for further analysis of FLIPsuc4μ and its mutants since they are important sugars in plants and might therefore interfere with sucrose measurements in vivo. […] Most mutants show similar patterns with higher affinity for maltose than sucrose. FLIPsuc-10μ is the most significant example with an 83 times higher affinity for maltose than sucrose (Table 1). The D115 mutants both show the highest affinity for maltose compared to sucrose and […], but to a different extent.

Experiment [2] has as its target Agrobacterium tumefaciens ThuE (AtThuE) sucrose binding protein carrying N192D (SEQ ID NO: 2) fused between ECFP and EYFP, sensor FLIPsuc4μ (FLIPsuc), wt (indic (Agrobacterium fabrum, UniProt A9CF11, N212D)). The experiment is described as above.
Excerpt: as §1, §2, §3, §4

Experiment [3] deals with Agrobacterium tumefaciens AtThuE sensor FLIPsuc4μ variant D115E (FLIPsuc3m, FLIPsucD115E) (Agrobacterium fabrum, UniProt A9CF11, D135E/N212D). Kind of experiment: in vitro FRET titration of affinity mutant FLIPsuc3m. It is filed as binding. To be noted: for Δratio (delta ratio): no binding to saturated binding. The procedure: as §3
(§5) To expand the dynamic range of the sucrose sensor, site directed mutagenesis was used as described above to lower the binding affinity of the sucrose binding domain. Affinity mutants of FLIPsuc4μ were generated. Alignment together with modeling of AtThuE with maltose binding proteins that have been crystallized helped predict residues important for ligand binding. […] Mutant forms carrying substitutions F113A, D115A, D115E, D115N, W244A, Y246A and W283A were generated using Kunkel mutagenesis (Kunkel et al. 1991) in the mutant background of FLIPsuc41t. The affinity mutants were designated as FLIPsucF113A, FLIPsucW283A, FLIPsucD115A, FLIPsucD115E, FLIPsucY246A, and FLIPsucW244A. All six mutants have lower affinities for sucrose than that of FLIPsuc4μ, with a Kd value varying from 10 μM to the higher mM range (Table 1). The starting ratio between EYFP and ECFP ranges from 1.4 to close to 2.0, which is also similar to what has been seen in other sugar sensors (FLIPmal, FLIPglu and FLIPrib). Introducing substitution F113A into the ThuE moiety of FLIPsuc4μ produced FLIPsuc10μ, which has a binding constant (Kd) of 10 μM for sucrose, thus providing a range for sucrose quantification between at least 1 μM and 90 μM (Table 1).

Experiment [4] deals with Agrobacterium tumefaciens AtThuE sensor FLIPsuc4μ variant D115N (Agrobacterium fabrum, UniProt A9CF11, D135N/N212D). The experiment in a line: FRET ratio change of D115N mutant. It is filed as binding. The procedure: as §3
To expand the dynamic range of the sucrose sensor, site directed mutagenesis was used as described above to lower the binding affinity of the sucrose binding domain. Affinity mutants of FLIPsuc4μ were generated. Alignment together with modeling of AtThuE with maltose binding proteins that have been crystallized helped predict residues important for ligand binding. […]

The target in experiment [5] is Agrobacterium tumefaciens AtThuE sensor FLIPsuc4μ variant D115A (FLIPsuc1m, FLIPsucD115A) (Agrobacterium fabrum, UniProt A9CF11, D135A/N212D). The experiment in a line: in vitro FRET titration of affinity mutant FLIPsuc1m. It is filed as binding. To be noted: for Δratio (delta ratio): no binding to saturated binding. The method, then:
as §3, §5

Experiment [6] deals with Agrobacterium tumefaciens AtThuE sensor FLIPsuc4μ variant W244A (FLIPsuc46m, FLIPsucW244A) (Agrobacterium fabrum, UniProt A9CF11, N212D/W264A). The experiment in a line: in vitro FRET titration of affinity mutant FLIPsuc46m. It is filed as binding. The procedure:
as §3, §5

For experiment [7], the target named is Agrobacterium tumefaciens AtThuE sensor FLIPsucW283A with linker shortened by 18 amino acids (FLIPsucW283A-18AA, FLIPThuEW283A-18AA) (Agrobacterium fabrum, UniProt A9CF11, N212D/W303A). Kind of experiment: FRET ratio change of short-linker sensor FLIPsucW283A-18AA. It is filed as binding. To be noted: FIG. 3. The method, then: as §3
In an attempt to improve the delta ratio of the sucrose sensor the sensor containing the W283A mutation was cloned into a construct with a shorter linker sequence between the GFP variants and the binding protein. Deuschle et al. (2005) has shown that the length of the linker sequence plays a major role in the maximum change in ratio. A construct corresponding to FLIPglu600μΔ5 was constructed which gives a sucrose sensor whose linker was shortened by 18 amino acids (FLIPsucW283A-18AA). […]

The target of experiment [8] is Agrobacterium tumefaciens AtThuE sensor FLIPsuc4μ variant W283A (FLIPsuc88μ, FLIPsucW283A) (Agrobacterium fabrum, UniProt A9CF11, N212D/W303A). The experiment in a line: in vitro FRET titration of affinity mutant FLIPsuc88μ. It is filed as binding. The method, then:
as §3, §5

For experiment [9], the target named is Agrobacterium tumefaciens AtThuE sensor FLIPsuc4μ variant F113A (FLIPsuc10μ, FLIPsucF113A) (Agrobacterium fabrum, UniProt A9CF11, F133A/N212D). The experiment in a line: in vitro FRET titration of affinity mutant FLIPsuc10μ. It is filed as binding. To be noted: for Δratio (change in ratio): in vitro, no binding to saturated binding. The procedure:
as §3, §5

The target in experiment [10] is Agrobacterium tumefaciens AtThuE sensor FLIPsuc4μ variant Y246A (FLIPsuc15m, FLIPsucY246A) (Agrobacterium fabrum, UniProt A9CF11, N212D/Y266A). Kind of experiment: in vitro FRET titration of affinity mutant FLIPsuc15m. It is filed as binding. The procedure: as §3, §5
The mark [11] stands for this setting: 20 mM MOPS pH 7, FRET titration.
The mark [12] stands for this setting: in vitro, no binding to saturated binding.

These results are taken from patent US8173863B2, “Sucrose biosensors and methods of using the same” (Carnegie Institution of Washington, priority 2005, dated 2012).

Turning to `OC[C@H]1O[C@@](CO)(O[C@H]2O[C@H](CO)[C@@H](O)[C@H](O)[C@H]2O)[C@@H](O)[C@@H]1O` [sucrose], the Kd (as a rule, the concentration at which binding is half-saturated) in experiment [1] is 3.7 µM; in experiment [3] (setting [11]), 2870 µM; in experiment [3] (FRET titration), 2900 µM; in experiment [5] (setting [11]), 1350 µM; in experiment [5] (FRET titration), 1400 µM; in experiment [6] it was 46200 µM. The Kd in experiment [8] (Kd, in vitro, 20 mM MOPS pH 7, FRET titration) stood at 88 µM; in [9], 10 µM; in experiment [10], 14600 µM. The “change in FRET on titration” value in [2] (concentration-dependent, FIG. 1B) is recorded as “concentration-dependent decrease in FRET”. Besides, the “Δratio (maximum ratio change)” value in experiment [2] (in vitro, no binding to saturated binding, listed as Sucrose) turned out to be 0.18. For the same compound, in experiment [2] (sucrose titration, pH 7), the Hill coefficient (commonly the slope factor of the fitted curve) came out at 1.04. The “Δratio (delta ratio)” value is approximately 0.4 in experiment [3], 0.36 in [3] (listed as Sucrose), “at least 0.6” in experiment [5] and 0.68 in experiment [5] (listed as Sucrose). Further, the “change in ratio upon addition of sucrose” value in [4] is given as “no longer seen”. Besides, the results for the Δratio in experiment [6] (setting [12]), in [8] (setting [12]) and in [10] (setting [12]) were 0.4, 0.29 and 0.14, respectively. Also, the “ratio change relative to original construct (FLIPsucW283A)” value in experiment [7] was determined as 3 fold. Further, the “affinity for sucrose relative to maltose” value in experiment [8] (ratio of Kd) is reported as “three times higher than for maltose”. Moreover, the “Δratio (change in ratio)” value is 0.1-0.15 in experiment [9] and 0.12 in [9] (listed as Sucrose).
